Experimental data as given in PMC8894670, “An Integrative Multiomics Approach to Characterize Prebiotic Inulin Effects on Faecalibacterium prausnitzii” (Frontiers in Bioengineering and Biotechnology, 2022).

Experiments:
amylosucrase (ams) = target: T1, amylosucrase (ams) (Faecalibacterium duncaniae, UniProt C7H8X5); assay: MALDI-TOF-MS of products, lysate of overexpressing E. coli; format: biochemical; details: 10 mg/ml sucrose, 50 mM sodium phosphate, 37°C, 10 min; 36 ng soluble lysate protein
T1 construct: gene FAEPRAA2165_02769; full-length ORF amplified from genomic DNA, pET28a (BamHI/XhoI sites in primers, tag kept if any), E. coli BL21(DE3), soluble lysate; EC 2.4.1.4, GH13; primers encode N-term MAAKQE, C-term LVKNK
T1 sequence (C7H8X5 1-609): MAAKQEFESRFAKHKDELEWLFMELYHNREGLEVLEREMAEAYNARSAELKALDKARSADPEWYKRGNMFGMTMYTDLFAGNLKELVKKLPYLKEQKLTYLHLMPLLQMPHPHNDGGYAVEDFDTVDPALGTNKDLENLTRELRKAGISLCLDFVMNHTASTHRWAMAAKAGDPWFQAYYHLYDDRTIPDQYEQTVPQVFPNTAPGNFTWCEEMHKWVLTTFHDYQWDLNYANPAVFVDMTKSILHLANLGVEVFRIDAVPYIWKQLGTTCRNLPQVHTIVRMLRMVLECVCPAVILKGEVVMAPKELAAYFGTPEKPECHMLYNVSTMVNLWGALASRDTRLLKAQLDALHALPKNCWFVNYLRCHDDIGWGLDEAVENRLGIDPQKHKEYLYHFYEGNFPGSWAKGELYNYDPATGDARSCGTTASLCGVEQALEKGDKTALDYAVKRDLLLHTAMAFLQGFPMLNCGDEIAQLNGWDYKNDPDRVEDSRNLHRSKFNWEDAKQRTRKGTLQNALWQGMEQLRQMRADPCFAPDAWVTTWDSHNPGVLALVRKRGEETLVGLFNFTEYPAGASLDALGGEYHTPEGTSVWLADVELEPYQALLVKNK

β-fructosidase (bfrA) = target: T2, β-fructosidase (bfrA) (Faecalibacterium duncaniae, UniProt C7H8W7); assay: as above; format: biochemical; details: 10 mg/ml sucrose, 50 mM sodium phosphate, 37°C, 10 min; 36 ng soluble lysate protein
T2 construct: gene FAEPRAA2165_02761; full-length ORF amplified from genomic DNA, pET28a (BamHI/XhoI sites in primers, tag kept if any), E. coli BL21(DE3), soluble lysate; EC 3.2.1.26, GH32; primers encode N-term MNDLTL, C-term FELNL
T2 sequence (C7H8W7 1-491): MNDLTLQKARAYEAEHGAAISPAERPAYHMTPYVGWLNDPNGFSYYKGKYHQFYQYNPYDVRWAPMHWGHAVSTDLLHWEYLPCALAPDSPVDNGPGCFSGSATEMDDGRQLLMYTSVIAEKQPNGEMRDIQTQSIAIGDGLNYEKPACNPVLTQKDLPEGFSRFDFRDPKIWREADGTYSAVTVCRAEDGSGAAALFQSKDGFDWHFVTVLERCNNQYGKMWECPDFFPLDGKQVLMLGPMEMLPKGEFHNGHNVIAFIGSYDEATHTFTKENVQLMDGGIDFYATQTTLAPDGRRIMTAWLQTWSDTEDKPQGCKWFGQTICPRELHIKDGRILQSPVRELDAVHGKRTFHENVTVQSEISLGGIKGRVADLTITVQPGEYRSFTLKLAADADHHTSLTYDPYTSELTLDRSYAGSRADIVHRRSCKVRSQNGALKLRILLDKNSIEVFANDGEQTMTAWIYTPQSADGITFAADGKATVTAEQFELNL

OC[C@H]1O[C@@](CO)(O[C@H]2O[C@H](CO)[C@@H](O)[C@H](O)[C@H]2O)[C@@H](O)[C@@H]1O [sucrose]
MALDI-TOF-MS of products, lysate of overexpressing E. coli (amylosucrase (ams)): sucrose was degraded by the pET28a-ams and pET28a-bfrA recombinant strains | MALDI-TOF-MS of products, lysate of overexpressing E. coli (β-fructosidase (bfrA)): sucrose was degraded by the pET28a-ams and pET28a-bfrA recombinant strains
